Reference: patent US20220380801A1, “TRIPARTITE SYSTEMS FOR PROTEIN DIMERIZATION AND METHODS OF USE” (priority 2019, published 2022)
Where two headings read alike, the source gives them in different places.

Experiments:
[1] = target: HCV NS3/4A PR (S139A)/PRSIM_23 (Hepatitis C virus subtype 1a, UniProt A8DG50, A1066T/I1043Q/I1044E/L1039E/L1040E/L1047Q/S1165A, form not given); test: Biacore 8K simeprevir titration of heterodimerisation; type: binding; details: read-out: EC50 of simeprevir for induction of heterodimerisation, 40 nM ‘WT’ (S139A) protease, immobilised PRSIM_23
Experimental: (§1) The effect of simeprevir concentration on the formation of the HCV NS3/4A PR (S139A)/PRSIM binding molecule complex was also measured using the Biacore 8K. PRSIM_57 and PRSIM_23 were covalently immobilised on a CM5 chip surface, as before. Simeprevir was diluted 1:2 (0.0152-300 nM) in 10 mM Hepes pH 7.4, 150 mM NaCl, 0.05% Surfactant P20, 0.3% DMSO at a constant 40 nM HCV NS3/4A PR (S139A) concentration. The samples were flowed over the chip at 50 μl/min using multi cycle kinetics, with 240 sec association and 600 sec dissociation. Regeneration conditions were as described above. Titration curves for the induction of HCV NS3/4A PR (S139A)/PRSIM dimerization by simeprevir were generated. The response for each simeprevir concentration at 225 sec (15 sec before the end of the association) was normalized as a percentage of the response for 300 nM Simeprevir at 225 sec and plotted against the Simeprevir concentration. Each data point represents the mean of 3 independent experiments±s.e.m. The EC50 reported was calculated using nonlinear regression curve fit. The same method was used for the mutant HCV NS3/4A proteases, except simeprevir was diluted 1:2 (0.0457-900 or 0.412-8,100 nM) in 10 mM Hepes pH 7.4, 150 mM NaCl, 0.05% Surfactant P20, 0.82% DMSO at a constant 40 nM HCV NS3/4A PR (S139A) concentration and the response for each simeprevir concentration was normalized against the highest simeprevir concentration.

[2] = target: HCV NS3/4A PR (S139A)/PRSIM_57 (Hepatitis C virus subtype 1a, UniProt A8DG50, A1066T/I1043Q/I1044E/L1039E/L1040E/L1047Q/S1165A, form not given); test: as above; type: binding; details: read-out: EC50 of simeprevir for induction of heterodimerisation; 40 nM HCV NS3/4A PR (S139A), immobilised PRSIM_57
Experimental: as §1

[3] = target: HCV NS3/4A PR D168E/PRSIM_23 (Hepatitis C virus subtype 1a, UniProt A8DG50, D1194E/S1165A, form not given); test: as above; type: binding; details: read-out: EC50 of simeprevir for induction of heterodimerisation; D168E protease, immobilised PRSIM_23
Experimental: as §1

[4] = target: HCV NS3/4A PR K136D/PRSIM_23 (Hepatitis C virus subtype 1a, UniProt A8DG50, K1162D/S1165A, form not given); test: as above; type: binding
Experimental: as §1

[5] = target: HCV NS3/4A D168E PR (Hepatitis C virus subtype 1a, UniProt A8DG50, A1066T/D1194E/I1043Q/I1044E/L1039E/L1040E/L1047Q/S1165A, form not given); test: Octet RED384 simeprevir affinity; type: binding
Experimental: (§2) The biotinylated HCV NS3/4A PR (S139A), HCV NS3/4A K136D PR, HCV NS3/4A K136N PR and HCV NS3/4A D168E PR were loaded on High Precision Streptavidin (SAX) biosensors at a concentration of 2 μg/ml in 10 mM Hepes pH 7.4, 150 mM NaCl, 0.05% Surfactant P20, 0.3% DMSO. The simeprevir was diluted […] (46.88-3,000 nM) in the same buffer and the loaded biosensors were dipped into the simeprevir samples for 180 sec to measure the association. For the dissociation the biosensors were dipped into the buffer for 600 sec. The traces were analysed using ForteBio Data Analysis software and fit globally using a 1:1 binding model.

[6] = target: HCV NS3/4A K136N PR (Hepatitis C virus subtype 1a, UniProt A8DG50, A1066T/I1043Q/I1044E/K1162N/L1039E/L1040E/L1047Q/S1165A, form not given); test: Octet RED384 simeprevir affinity; type: binding
Experimental: as §2

[7] = target: HCV NS3/4A PR (S139A) (Hepatitis C virus subtype 1a, UniProt A8DG50, A1066T/I1043Q/I1044E/L1039E/L1040E/L1047Q/S1165A, form not given); test: Octet RED384 simeprevir affinity; type: binding; details: WT (S139A)
Experimental: as §2

[8] = test system: Caspase 3 activity in kill switch-transduced HCT116 cells; test: Kill switch Caspase 3 functional assay; type: cell-based, human; details: 10 nM simeprevir, relative to non-transduced cells
Experimental: (§3) HCT116 and HT29 transduced cells were generated following the same protocol with exception of using McCoy's 5A medium+10% foetal bovine serum as growth medium, supplemented with 2 μg/ml puromycin for selection of transduced cells.
(§4) Functional Caspase 9 activates Caspase 3, and this proteolytic activity can be determined using cleavage of non-fluorescent substrate DEVD-AMC into cleavage products DEVD and fluorescent AMC, such that AMC fluorescence signal at 430 nm is proportional to Caspase 3 activity. For the Caspase 3 assay, cells were plated in duplicate onto 6 well tissue-culture treated plates. 24 h later, one of the duplicate wells was treated with 10 nM simeprevir for 3 h. Cells lysates were analysed in triplicate using a Caspase 3 assay from BD Biosciences according to manufacturer's instruction with the modification that total protein input was normalised to 50 μg by BCA assay (LifeTechnologies). Fluorescence was determined on an Envision plate reader (PerkinElmer), Ex: 380 nm, Em: 430 nm. For quantification, RFU (raw fluorescence value) for wells that contained only the assay substrate were subtracted from all RFU derived from assay samples. Results were normalised to non-transduced, simeprevir-treated cells. Analysis was performed in Prism (GraphPad) using a One-Way-Anova followed by multiple comparisons.

[9] = test system: Caspase 3 activity in kill switch-transduced HT29 cells; test: Kill switch Caspase 3 functional assay; type: cell-based, human; details: 10 nM simeprevir, relative to non-transduced cells
Experimental: as §3, §4

COc1ccc2c(O[C@@H]3C[C@H]4C(=O)N[C@]5(C(=O)NS(=O)(=O)C6CC6)C[C@H]5/C=C\CCCCN(C)C(=O)[C@@H]4C3)cc(-c3nc(C(C)C)cs3)nc2c1C [simeprevir]
EC50 [1]: 0.00453 µM
EC50 ([1]; listed as Simeprevir): 0.00403 µM
EC50 [2]: 0.00457 µM
EC50 [3]: 0.00369 µM
EC50 higher than for the wt complex ([4]; K136D versus wt complex): ~30 fold
EC50 ([4]; read-out: EC50 of simeprevir for induction of heterodimerisation, K136D protease, immobilised PRSIM_23): 0.132 µM
Kd [5]: 0.033 µM
decreased simeprevir affinity compared to ‘WT’ (S139A) [5]: ~2 fold
koff [5]: 0.000665 s⁻¹
kon [5]: 20000 M⁻¹ s⁻¹
Kd [6]: 0.0315 µM
decreased simeprevir affinity compared to ‘WT’ (S139A) [6]: ~2 fold
koff [6]: 0.00107 s⁻¹
kon [6]: 33800 M⁻¹ s⁻¹
Kd [7]: 0.0178 µM
koff [7]: 0.000495 s⁻¹
kon [7]: 27800 M⁻¹ s⁻¹
Caspase 3 activity [8]: significantly (p<0.0001) up-regulated
Caspase 3 activity [9]: significantly (p<0.0001) up-regulated
